For the test, the target named is T1, human CaMKIIδ (Homo sapiens, UniProt Q13557).
T1 construct: Full-length, glutathione-S-transferase(GST)-tagged, human CaMKIIδ was purchased from Carna Biosciences; purchased Carna Biosciences (CaMKIIδ); Wako Pure Chemical Industries (calmodulin) 02-111
Briefly: Evaluation of in vitro CaMKII inhibitory activity (binding assay, TR-FRET). To be noted: human CaMKIIδ. How it is done:
Evaluation of In Vitro CaMKII Inhibitory Activity (Binding Assay)
In vitro CaMKIIδ inhibitory activity was evaluated by a binding assay.
Full-length bovine calmodulin was purchased from Wako Pure Chemical Industries (Osaka, Japan). Terbium-labeled anti-GST anti body (Tb-anti-GST Ab) was purchased from Life Technologies (Carlsbad, CA, USA). Fluorescent probe ligand, 5,5-difluoro-7,9-dimethyl-3-(3-oxo-3-((3-((4-(3-(piperazin-1-yl)phenyl)pyrimidin-2-yl)amino)phenyl)amino) propyl)-5H-dipyrrolo[1,2-c:2′,1′-f]
Time-resolved fluorescence resonance energy transfer (TR-FRET) assay
The fluorescent probe ligand, 5,5-difluoro-7,9-dimethyl-3-(3-oxo-3-((3-((4-(3-(piperazin-1-yl)phenyl)pyrimidin-2-yl)amino)phenyl)amino) propyl)-5H-dipyrrolo[1,2-c:2′,1′-f] […] After shaded incubation of the protein-probe mixture on ice for 30 min, the premix was dispensed in the assay plate including test inhibitors with 4 fold dilution series of eight concentrations. After 1 hr incubation at room temperature, TR-FRET signals were measured in duplicate using an EnVision microplate reader (Perkin Elmer, Waltham, MA, USA).
The half maximal inhibitory concentration (IC50) of test compounds was calculated by fitting the data with the logistic equation using XLfit (IDBS, Guildford, UK).

[1] abbreviates: TR-FRET binding assay, class symbols A/B/C, read-out: Act (CaMKII inhibitory activity, binding assay).
[2] abbreviates: in vitro CaMKII inhibitory activity (binding assay), read-out: Act.

SMILES strings stand for the structures. pIC50: −log10 of the molar value. Where two headings read alike, the source gives them in different places.

The results in this text go back to patent US12528816B2, “Substituted imidazo [1,2-b] pyridazines and [1, 2, 4] triazolo [ 4,3-b] pyridazines as camkii inhibitors” (Cardurion Pharmaceuticals, INC., priority 2020, dated 2026).

As to `C[C@@H](Cn1cnnn1)Oc1cc(-c2ccn3ncc(-c4ccccc4C(F)(F)F)c3n2)ccc1F` [compound 129], the pIC50 under setting [1] is < 7.00.

Consider `COC(=O)c1sccc1-c1cnc2ccc(-c3ccc(F)c(O[C@@H](C)Cn4cnnn4)c3)nn12` [compound 238], for which the pIC50 under setting [2] is 7.00 to 8.00.

With `C[C@@H](Cn1cnnn1)Oc1ccnc(-c2ccc3ncn(-c4cc(F)ccc4C#N)c3n2)n1` [compound 346], the pIC50 under setting [2] is 7.00 to 8.00.

For the compound `CNC(=O)c1c(-c2cnc3ccc(-c4ccc(F)c(O[C@@H](C)Cn5cnnn5)c4)nn23)cnn1CCCOC` [compound 235], the pIC50 under setting [2] is < 7.00.

Regarding `COc1cc(F)cc(-c2cnc3ccc(-c4cccc(O[C@@H](C)Cn5cncn5)n4)nn23)c1C#N` [Example 452, 4-fluoro-2-methoxy-6-[6-(6-{[(2S)-1-(1H-1,2,4-triazol-1-yl)propan-2-yl]oxy}pyridin-2-yl)imidazo[1,2-b]pyridazin-3-yl]benzonitrile], the pIC50 under setting [2] is > 8.00.

As to `C[C@@H](Cn1cnnn1)Oc1cc(-c2ccc3ncc(-c4cc(F)c[nH]c4=O)n3n2)ccc1F` [compound 314], the pIC50 under setting [2] is > 8.00.

For the compound `C[C@@H](Cn1cnnn1)Oc1cncc(-c2ccc3ncc(-c4nccc(C(F)F)c4C#N)n3n2)n1` [compound 471], the pIC50 under setting [1] was < 7.00.

As for `CC(=O)c1cccc(-c2cnc3ccc(-c4cccc(O[C@@H](C)Cn5cnnn5)c4)nn23)c1C#N` [Example 426, 2-acetyl-6-[6-(3-{[(2S)-1-(1H-tetrazol-1-yl)propan-2-yl]oxy}phenyl)imidazo[1,2-b]pyridazin-3-yl]benzonitrile], the pIC50 under setting [2] was > 8.00.

As for `C[C@@H](Cn1cnnn1)Oc1cc(-c2ccc3ncc(-c4cccc(OCC5CCC5)c4C#N)n3n2)ccc1F` [compound 210], the pIC50 under setting [1] is > 8.00.

As to `C[C@@H](Cn1cnnn1)Oc1cccc(-c2ccn3ncc(-c4nccnc4C#N)c3n2)c1` [compound 302], the pIC50 under setting [2] was > 8.00.

On to `C[C@@H](Cn1cnnn1)Oc1cc(-c2ccn3ncc(-c4ccccc4)c3n2)ccc1F` [compound 5], for which, under setting [1], the pIC50 was > 8.00.

Regarding `C[C@@H](Cn1cnnn1)Oc1cccc(-c2ccc3ncc(-c4cc(F)cnc4OCC#N)n3n2)c1` [compound 359], under setting [2], the pIC50 is > 8.00.

With `C[C@@H](Cn1cnnn1)Oc1cccc(-c2ccc3ncn(-c4cc(F)ccc4C#N)c3n2)n1` [Example 345, 4-fluoro-2-[5-(6-{[(2S)-1-(1H-tetrazol-1-yl)propan-2-yl]oxy}pyridin-2-yl)-3H-imidazo[4,5-b]pyridin-3-yl]benzonitrile], under setting [2], the pIC50 is > 8.00.

For `COc1nccc(-c2cnc3ccc(-c4cccc(O[C@@H](C)Cn5cnnn5)c4)nn23)c1C#N` [compound 400], the pIC50 under setting [2] is > 8.00.

For the compound `C[C@@H](Cn1cnnn1)Oc1cc(-c2ccc3ncn(-c4cc(F)ccc4C#N)c3n2)ccn1` [compound 343], the pIC50 under setting [2] is > 8.00.

With `Cc1ncc(-c2cnn3ccc(-c4ccc(F)c(O[C@@H](C)Cn5cnnn5)c4)nc23)s1` [compound 141], the pIC50 under setting [1] is > 8.00.

For the compound `C[C@@H](Cn1nnnc1N)Oc1cccc(-c2ccn3ncc(-c4cccs4)c3n2)c1` [compound 59], the pIC50 under setting [1] was > 8.00.

Consider `C[C@@H](Cn1cnnn1)Oc1ccnc(-c2ccc3ncn(-c4cc(F)ccc4C#N)c3n2)c1` [compound 330], for which the pIC50 under setting [2] was > 8.00.

Consider `C[C@@H](Cn1cnnn1)Oc1cccc(-c2ccc3ncc(-c4cccn(CC(F)F)c4=O)n3n2)c1` [compound 340], for which, under setting [2], the pIC50 is > 8.00.

Regarding `C[C@@H](Cn1cnnn1)Oc1cc(-c2ccn3ncc(-c4cnn(C)c4C#N)c3n2)ccc1F` [compound 163], under setting [1], the pIC50 is > 8.00.

For `CC(=O)Nc1cccc(-c2cnn3ccc(-c4ccc(F)c(O[C@@H](C)Cn5cnnn5)c4)nc23)c1` [compound 36], the pIC50 under setting [1] was > 8.00.

For the compound `C[C@@H](Cn1cnnn1)Oc1cccc(-c2ccc3ncn(-c4cc(Cl)ccc4C#N)c3n2)n1` [compound 442], the pIC50 under setting [2] was > 8.00.

`C[C@@H](Cn1cnnn1)Oc1cccc(-c2ccn3ncc(-c4cccc(C(=O)O)c4)c3n2)c1` [compound 16]: the pIC50 under setting [1] was > 8.00.

Take `C[C@@H](Cn1cnnn1)Oc1cc(-c2ccc3ncn(-c4ncccc4C#N)c3n2)ccc1F` [Example 150, 2-[5-(4-fluoro-3-{[(2S)-1-(1H-tetrazol-1-yl)propan-2-yl]oxy}phenyl)-3H-imidazo[4,5-b]pyridin-3-yl]pyridine-3-carbonitrile]: under setting [1], the pIC50 is > 8.00.

Regarding `C[C@@H](Cn1cnnn1)Oc1cccc(-c2ccn3ncc(-c4cccc(C(=O)NCCC5CCCCC5)c4)c3n2)c1` [compound 111], the pIC50 under setting [1] was 7.00 to 8.00.

As to `C[C@@H](Cn1cnnn1)Oc1cccc(-c2ccc3ncc(-c4ccc(F)c(F)c4C#N)n3n2)n1` [compound 460], the pIC50 under setting [2] is 7.00 to 8.00.

For the compound `C[C@@H](Cn1cnnn1)Oc1cccc(-c2ccc3ncc(-c4cc(F)cnc4OCC(F)(F)F)n3n2)c1` [compound 338], under setting [2], the pIC50 was > 8.00.

In the case of `C[C@@H](Cn1cnnn1)Oc1cccc(-c2ccc3ncc(-c4nc(F)ccc4C#N)n3n2)c1` [Example 467, 6-fluoro-2-[6-(3-{[(2S)-1-(1H-tetrazol-1-yl)propan-2-yl]oxy}phenyl)imidazo[1,2-b]pyridazin-3-yl]pyridine-3-carbonitrile], the pIC50 under setting [2] is > 8.00.

With `COc1cc(F)c(C#N)c(-c2cnc3ccc(-c4cccc(O[C@@H](C)Cn5cnnn5)n4)nn23)c1` [compound 408], the pIC50 under setting [2] is > 8.00.

For the compound `C[C@@H](Cn1cnnn1)Oc1cc(-c2ccc3ncc(-c4cn(CC(=O)O)nc4C#N)n3n2)ccc1F` [compound 125], the pIC50 under setting [1] is 7.00 to 8.00.

As for `C[C@@H](Cn1cnnn1)Oc1cc(-c2ccc3ncc(-c4cccc(OCC(N)=O)c4C#N)n3n2)ccc1F` [compound 202], under setting [1], the pIC50 was > 8.00.

`CC(Cn1cnnn1)Oc1cc(-c2ccc3ncc(-c4cccc(OC5CCC(N6CC(C)OC(C)C6)CC5)c4C#N)n3n2)ccc1F` [compound 195, 2-[6-(4-fluoro-3-{[(2S)-1-(1H-tetrazol-1-yl)propan-2-yl]oxy}phenyl)imidazo[1,2-b]pyridazin-3-yl]-6-{[(1r,4r)-4-[(2R,6S)-2,6-dimethylmorpholin-4-yl]cyclohexyl]oxy}benzonitrile]: the pIC50 under setting [1] is > 8.00.

As for `C[C@@H](Cn1cnnn1)Oc1cccc(-c2ccn3ncc(-c4cccc(C(=O)N5CCC(O)CC5)c4)c3n2)c1` [compound 89], the pIC50 under setting [1] was 7.00 to 8.00.

As for `C[C@@H](Cn1cnnn1)Oc1cc(-c2ccc3ncc(-c4cc(F)cn(C)c4=O)n3n2)ccc1F` [compound 317], the pIC50 under setting [2] is > 8.00.

Turning to `C[C@@H](Cn1cnnn1)Oc1cc(-c2ccn3ncc(-c4ccccc4C=O)c3n2)ccc1F` [compound 123], the pIC50 under setting [1] is > 8.00.

As to `COc1ccnc(-c2cnc3ccc(-c4cccc(O[C@@H](C)Cn5cnnn5)c4)nn23)c1C#N` [Example 300, 4-methoxy-2-[6-(3-{[(2S)-1-(1H-tetrazol-1-yl)propan-2-yl]oxy}phenyl)imidazo[1,2-b]pyridazin-3-yl]pyridine-3-carbonitrile], the pIC50 under setting [2] was > 8.00.

With `C[C@@H](Cn1cnnn1)Oc1cccc(-c2ccn3ncc(-c4cccc(C(=O)NCC(C)(C)C)c4)c3n2)c1` [compound 72], the pIC50 under setting [1] was > 8.00.

As to `C[C@@H](Cn1cnnn1)Oc1cccc(-c2ccn3ncc(-c4ccc(N5CCOCC5)cc4)c3n2)c1` [compound 15], the pIC50 under setting [1] is 7.00 to 8.00.

For `C[C@@H](Cn1cnnn1)Oc1cccc(-c2ccn3ncc(-c4cccc(C(=O)NC5CCN(C)CC5)c4)c3n2)c1` [compound 98], the pIC50 under setting [1] was > 8.00.

On to `C[C@@H](Cn1cnnn1)Oc1cc(-c2ccn3ncc(-c4ccn(CC#N)n4)c3n2)ccc1F` [compound 161], for which, under setting [1], the pIC50 was > 8.00.

Regarding `C[C@@H](Cn1cnnn1)Oc1cccc(-c2ccc3ncc(-c4cc(F)cnc4C#N)n3n2)c1` [compound 434], the pIC50 under setting [2] was > 8.00.

Turning to `C[C@@H](Cn1nnc(N)n1)Oc1cccc(-c2ccn3ncc(-c4cccs4)c3n2)c1` [compound 58], the pIC50 under setting [1] is < 7.00.

On to `C[C@@H](Cn1cnnn1)Oc1cccc(-c2ccn3ncc(-c4cccc(C(=O)NCCn5cncn5)c4)c3n2)c1` [compound 96], for which, under setting [1], the pIC50 is > 8.00.

With `C[C@@H](Cn1cnnn1)Oc1cc(-c2ccc3ncc(-c4cc(C(=O)NCCN5CCOCC5)ccc4C#N)n3n2)ccc1F` [compound 148], the pIC50 under setting [1] is 7.00 to 8.00.

On to `C[C@@H](Cn1cnnn1)Oc1cccc(-c2ccn3ncc(-c4cccc(C(=O)NCc5ccccn5)c4)c3n2)c1` [compound 92], for which the pIC50 under setting [1] is > 8.00.

For `COc1ccc(-c2cnn3ccc(-c4ccc(F)c(O[C@@H](C)Cn5cnnn5)c4)nc23)cc1` [compound 30], the pIC50 under setting [1] was > 8.00.

Turning to `CC(=O)Nc1ccc(-c2cnn3ccc(-c4ccc(F)c(O[C@@H](C)Cn5cnnn5)c4)nc23)cc1` [compound 38], under setting [1], the pIC50 was > 8.00.

With `C[C@@H](Cn1cnnn1)Oc1cc(-c2ccc3ncc(-c4nccnc4C#N)n3n2)ccc1F` [compound 290], the pIC50 under setting [2] is > 8.00.

For the compound `COc1cc(F)cc(-n2cnc3ccc(-c4cc(O[C@@H](C)Cn5cnnn5)ccn4)nc32)c1C#N` [compound 411], under setting [2], the pIC50 is > 8.00.

For `C[C@@H](Cn1cnnn1)Oc1cccc(-c2ccn3ncc(-c4cccc(C(=O)NC5CN(C)C5)c4)c3n2)c1` [compound 70], the pIC50 under setting [1] is > 8.00.
